Experimental data as given in paper PMC10620772, “Design, synthesis, and biological evaluation of new pyrimidine-5-carbonitrile derivatives as novel anti-cancer, dual EGFR^WT/COX-2 inhibitors with docking studies” (RSC Advances, 2023).

Legend:
breast cancer subpanel = assay: NCI60 five-dose, subpanel IX; assay type: cell-based, human; conditions: for GI50: Homo sapiens, read-out: MG-MID (GI50); for GI50 / MG-MID (TGI): subpanel IX; for Selectivity index (GI50) / Selectivity index (TGI): full panel MG-MID / subpanel IX
Excerpt: (§1) (2) The molar concentration of the compound responsible for total growth inhibition, also known as total growth inhibition (TGI).
(§2) Regarding subpanel selectivity toward certain cancer type, the method of determining a compound's selectivity index is to divide the full panel MG-MID (μM) value by each single subpanel. Values above six indicate high selectivity against the subpanel; moderate selectivity is denoted by values between three and six. Conversely, compounds are termed nonselective if their selectivity is less than three.[30,37]

Colo-205 cells = assay: Annexin V-FITC apoptosis assay; assay type: cell-based, human; conditions: treated at IC50
Excerpt: The Annexin V-FITC/propidium iodide dual staining assay was used to assess the effect of compound (4e and 4f) on inducing apoptosis in Colo-205 cells. This assay allows for the identification of early stages of apoptosis before the loss of cell membrane integrity, allowing measurements of apoptotic death kinetics in relation to the cell cycle.
(§3) Cell Culture Unit, VACSERA, Cairo, Egypt, conducted an apoptosis investigation.
Centrifuge to collect cells, using binding buffer to resuspend cells. Pipette 5 μl of Annexine-V and 5 μl. Subsequently, incubate sample for 5 min. In R.T, dark condition. Detect Annexine V-FITC binding cells detected by FACSCaliber flow cytometer (Ex = 488 nm; Em = 530 nm) which indicate apoptotic cells. On the other side the PI stained cells detected by FL2 flow cytometer, which detect necrotic cells.[53,54]

CNS cancer subpanel = assay: NCI60 five-dose, subpanel IV; assay type: cell-based, human; conditions: for GI50: Homo sapiens, read-out: MG-MID (GI50); for GI50 / MG-MID (TGI): subpanel IV; for Selectivity index (GI50) / Selectivity index (TGI): full panel MG-MID / subpanel IV
Excerpt: as §1, §2

[1] = system: FHC (epithelial colon cell line); assay: in vitro; conditions: human
Method: (§4) Further perspectives of their mechanisms of action were carried.
(§5) The preliminary in vitro antitumor investigation of our novel potential anticancer candidates was carried out by NCI, MD, USA (www.dtp.nci.nih.gov). […] Moreover, the safety profile of 4e & 4f at normal cells were evaluated.

in vitro = conditions: human
Method: as §4, §5

melanoma subpanel = assay: NCI60 five-dose, subpanel V; assay type: cell-based, human; conditions: for GI50: Homo sapiens, read-out: MG-MID (GI50); for GI50 / MG-MID (TGI): subpanel V; for Selectivity index (GI50) / Selectivity index (TGI): full panel MG-MID / subpanel V
Excerpt: as §1, §2

[2] = system: non-small cell lung cancer subpanel; assay: NCI60 five-dose, subpanel II; assay type: cell-based, human; conditions: for GI50: Homo sapiens, read-out: MG-MID (GI50); for GI50 / MG-MID (TGI): subpanel II; for Selectivity index (GI50) / Selectivity index (TGI): full panel MG-MID / subpanel II
Excerpt: as §1, §2

COX-1 = target: T1, COX-1 (Ovis aries, UniProt P05979); assay: COX-1 inhibitor screening kit (Biovision); assay type: biochemical; conditions: means ± SD of three experiments; read-out: COX1 IC50
T1 construct: purchased Biovision K548
T1 sequence (P05979 25-600): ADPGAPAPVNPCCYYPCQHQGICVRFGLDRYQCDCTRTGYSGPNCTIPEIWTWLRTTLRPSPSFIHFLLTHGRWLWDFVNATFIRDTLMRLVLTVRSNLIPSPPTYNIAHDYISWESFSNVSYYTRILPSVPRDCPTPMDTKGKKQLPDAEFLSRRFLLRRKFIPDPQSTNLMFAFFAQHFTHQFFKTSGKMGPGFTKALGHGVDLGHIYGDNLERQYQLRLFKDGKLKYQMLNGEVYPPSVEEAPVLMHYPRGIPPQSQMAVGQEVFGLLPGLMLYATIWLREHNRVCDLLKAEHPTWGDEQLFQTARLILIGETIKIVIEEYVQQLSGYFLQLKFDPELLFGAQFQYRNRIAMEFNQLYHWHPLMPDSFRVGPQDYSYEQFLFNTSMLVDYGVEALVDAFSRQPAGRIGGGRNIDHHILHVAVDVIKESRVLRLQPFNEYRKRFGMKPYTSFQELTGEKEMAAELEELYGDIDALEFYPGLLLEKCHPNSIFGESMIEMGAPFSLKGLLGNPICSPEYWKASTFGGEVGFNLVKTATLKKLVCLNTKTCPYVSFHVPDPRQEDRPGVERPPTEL
Method: (§6) The inhibitory activity of novel 4e & 4f against COX-1/COX-2 was evaluated by using Biovision COX-1/COX-2 Inhibitor Screening Kit (Catalog #: K548) and (Catalog #: K547), respectively.

COX-2 = target: T2, COX-2 (Homo sapiens, UniProt P35354); assay: COX-2 inhibitor screening kit (Biovision); assay type: biochemical; conditions: for IC50: means ± SD of three experiments, read-out: COX2 IC50
T2 construct: purchased Biovision K547
T2 sequence (P35354 18-604): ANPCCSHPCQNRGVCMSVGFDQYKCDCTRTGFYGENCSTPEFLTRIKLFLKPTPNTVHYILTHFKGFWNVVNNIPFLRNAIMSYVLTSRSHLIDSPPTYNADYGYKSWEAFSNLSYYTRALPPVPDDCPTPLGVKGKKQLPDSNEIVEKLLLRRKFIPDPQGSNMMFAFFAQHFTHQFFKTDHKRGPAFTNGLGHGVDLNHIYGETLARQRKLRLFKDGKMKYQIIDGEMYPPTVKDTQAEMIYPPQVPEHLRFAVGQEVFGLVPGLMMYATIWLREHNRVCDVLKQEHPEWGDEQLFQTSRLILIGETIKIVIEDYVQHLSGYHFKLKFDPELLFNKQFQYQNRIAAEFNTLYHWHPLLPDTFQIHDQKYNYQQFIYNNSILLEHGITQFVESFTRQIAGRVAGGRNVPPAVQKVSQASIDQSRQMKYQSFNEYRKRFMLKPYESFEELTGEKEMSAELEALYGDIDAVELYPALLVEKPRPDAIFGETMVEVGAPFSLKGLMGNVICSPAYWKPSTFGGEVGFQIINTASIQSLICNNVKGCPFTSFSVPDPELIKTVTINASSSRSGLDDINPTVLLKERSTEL
Method: as §6

Leukemia subpanel = assay: NCI60 five-dose, subpanel I; assay type: cell-based, human; conditions: for GI50: Homo sapiens, read-out: MG-MID (GI50); for GI50 / MG-MID (TGI): subpanel I
Excerpt: as §1, §2

Colo 205 cells = assay: Cell cycle analysis by flow cytometry; assay type: cell-based, human; conditions: treated at IC50; for % G0–G1 / % G2/M / % S: DNA content
Method: Inhibition of the EGFR^WT/COX-2 pathway has been linked to alterations in cell survival and proliferation, as reported.[22,40]
as §3
Results reported as DNA% of each cell cycle phase: (S, G1, G2, M). The following reported procedure was followed; (1) applying compounds 4e and 4f on Colo 205 cell line separately, then the Colo 205 was cultured. (2) The cells were collected in PBS diluted by nanopure water as a single cell suspension (by adding trypsine to dissociate cells). (3) Centrifuge cells by 500×g for 5 min, decant the supernatant. (4) Using PBS wash the cells, gently tapping the tube to resuspend cells. (5) In ice bath fix the cells in 66% cooled ethanol, stored in +4 °C 2 h at least (6) put the sample on bench at room temperature, inverted tube gently to resuspend cells. (7) Centrifuge, discard supernatant, wash and resuspend cells once more time. (8) Gently adding PI solution with RNAase (preventing RNA staining and interfering results), (9) Incubate samples in R.T, dark conditions for 20 min (10) transfer samples into ice, dark conditions. (11) Genteelly tapping to resuspend cells which settled during incubation step. (12) Put sample into flow cytometer and run it. Detect the fluorescence of protium iodide in FL2.[41,42] Additional assessment of the pro-apoptotic effect was performed by using Annexin V-FITC and propidium iodide.

prostate cancer subpanel = assay: NCI60 five-dose, subpanel VIII; assay type: cell-based, human; conditions: for GI50: Homo sapiens, read-out: MG-MID (GI50); for GI50 / MG-MID (TGI): subpanel VIII; for Selectivity index (GI50) / Selectivity index (TGI): full panel MG-MID / subpanel VIII
Excerpt: as §1, §2

| Structure (SMILES) | GI50 (breast cancer subpanel) | Selectivity index (GI50) (breast cancer subpanel) | Selectivity index (TGI) (breast cancer subpanel) | MG-MID (TGI) (breast cancer subpanel) | Apoptosis early (Colo-205 cells) | Apoptosis late (Colo-205 cells) | Apoptosis total (Colo-205 cells) | Necrosis (Colo-205 cells) | GI50 (CNS cancer subpanel) | Selectivity index (GI50) (CNS cancer subpanel) | Selectivity index (TGI) (CNS cancer subpanel) | MG-MID (TGI) (CNS cancer subpanel) | IC50 FHC [1] | IC50 (in vitro) | selectivity ratio (in vitro) | GI50 (melanoma subpanel) | Selectivity index (GI50) (melanoma subpanel) | Selectivity index (TGI) (melanoma subpanel) | MG-MID (TGI) (melanoma subpanel) | GI50 [2] | other results |
| --- | --- | --- | --- | --- | --- | --- | --- | --- | --- | --- | --- | --- | --- | --- | --- | --- | --- | --- | --- | --- | --- |
| N#Cc1c(-c2ccc(F)cc2)nc(SCc2ccccc2)nc1N1CCNCC1 [4e, 2-(Benzylthio)-4-(4-fluorophenyl)-6-(piperazin-1-yl) pyrimidine-5-carbonitrile] | 9.57 µM | 1.11 | 0.98 | 23.96 µM | 19.91% | 25.22% | 51.07% | 5.94% | 12.6 µM | 0.85 | 0.88 | 26.80 µM | 46.34 µM | 28.2 µM | 17 | 13 µM | 0.82 | 0.93 | 25.21 µM | 11.2 µM | Selectivity index (GI50) [2]: 0.95; Selectivity index (TGI) [2]: 0.92; MG-MID (TGI) [2]: 25.67 µM; IC50 (COX-1): 11 ± 0.31 µM; SI (COX-2 over COX-1) (COX-2): 8.55; IC50 (COX-2): 1.28 µM; GI50 (Leukemia subpanel): 5.59 µM; Selectivity index (GI50) (Leukemia subpanel; full panel MG-MID / subpanel I): 1.90; MG-MID (TGI) (Leukemia subpanel): 16.17 µM; % G0–G1 (Colo 205 cells): 61.31%; % G2/M (Colo 205 cells): 2.87%; % S (Colo 205 cells): 35.82%; Cell cycle comment (Colo 205 cells): Cell growth arrest@ G1; Increase of cells at G0–G1 phase vs control (Colo 205 cells): ~1.2 fold; GI50 (prostate cancer subpanel): 13.4 µM; Selectivity index (GI50) (prostate cancer subpanel): 0.79; Selectivity index (TGI) (prostate cancer subpanel): 0.86; MG-MID (TGI) (prostate cancer subpanel): 27.40 µM |
| N#Cc1c(-c2ccc(F)cc2)nc(SCc2ccc(F)cc2)nc1N1CCNCC1 [4f, 2-((4-Fluorobenzyl)thio)-4-(4-fluorophenyl)-6-(piperazin-1-yl) pyrimidine-5-carbonitrile] | 11.8 µM | 1.14 | 0.98 | 26.88 µM | 26.15% | 12.71% | 43.12% | 4.26% | 14.3 µM | 0.94 | 0.91 | 28.98 µM | 28.25 µM | 46.3 µM | 25.3 | 13.9 µM | 0.96 | 1.00 | 26.43 µM | 13.7 µM | Selectivity index (GI50) [2]: 0.98; Selectivity index (TGI) [2]: 0.91; MG-MID (TGI) [2]: 28.83 µM; IC50 (COX-1): 31.6 ± 0.89 µM; SI (COX-2 over COX-1) (COX-2): 6.01; IC50 (COX-2): 5.26 µM; GI50 (Leukemia subpanel): 7.63 µM; Selectivity index (GI50) (Leukemia subpanel; full panel MG-MID / subpanel I): 1.76; Selectivity index (TGI) (Leukemia subpanel; full panel MG-MID / subpanel I): 1.21; MG-MID (TGI) (Leukemia subpanel): 21.84 µM; % G0–G1 (Colo 205 cells): 55.01%; % G2/M (Colo 205 cells): 5.39%; % S (Colo 205 cells): 39.6%; Cell cycle comment (Colo 205 cells): Cell growth arrest@ G1; Increase of cells at G0–G1 phase vs control (Colo 205 cells): ~1.1 fold; GI50 (prostate cancer subpanel): 14.7 µM; Selectivity index (GI50) (prostate cancer subpanel): 0.91; Selectivity index (TGI) (prostate cancer subpanel): 0.89; MG-MID (TGI) (prostate cancer subpanel): 29.50 µM |
